One experiment concerns OCI-AML3 cells. The experiment is described as follows: OCI-AML3 cell growth inhibition, dose-response viability assay (CellTiterGlo). To be noted: for EC50: read-out: AML-3 EC50; for sensitivity of OCI-AML3 relative to OCI-AML5: dose-response curves OCI-AML3 and OCI-AML5. The class given is cell-based. The method, then:
Cell dose-response viability assays. […] In the initial screen, compounds were added to seeded cells in serial dilutions (10 dilutions, 1:3, starting from […] 20 μM), in duplicates.
(§1) The potency of the compounds of Example 6 at inhibiting OCI-AML3 cell growth was tested using a procedure similar to that described for Mutritinib in Example 1. […] Murine MLL-AF9 leukemia cells (female cells) were generated by infection with VSV-G-pseudotyped MSCV MLL-AF9 IRES Puro (subcloned from a construct by Frédéric Barabé, Laval U, Quebec, QC, Canada).
(§2) Compounds were added to seeded cells in serial dilutions from 10 μM to 0.5 nM, in duplicates or quadruplicates.
A general note: ATP-based viability assays read luminescence as a measure of living cells.

In the next experiment the test system is MLL-AF9 cells. The experiment is described as follows: MLL-AF9 leukemia cell growth inhibition, dose-response viability assay (CellTiterGlo). Format: cell-based, murine. Particulars: read-out: MLL-AF9 EC50. The method, then: as §1, §2
The mark [1] stands for this setting: Homo sapiens, OCI-AML-3, 144 h, OCI-AML3 cells, 6 days of culture, CellTiterGlo.

Where two headings read alike, the source gives them in different places.

As to `FC(F)(F)c1ccc(/C=C/c2nc(COc3ccc(CCCCn4ccnn4)cc3)co2)cc1` [Compound 1, (E)-4-((4-(4-(1H-1,2,3-triazol-1-yl)butyl)phenoxy)methyl-2-(4-trifluoromethyl)styryl)oxazole, reference compound], the EC50 (in general, the concentration needed to bring the measured effect to its halfway point) was in the range of 100 to 500 nM in the experiment with OCI-AML3 cells (setting [1]) and 50 to 100 nM with MLL-AF9 cells (Mus musculus, 120 h, MLL-AF9 cells, 5 days of culture, CellTiterGlo).
For the compound `FC(F)(F)Oc1ccc(/C=C/c2nc(COc3ccc(CCCCn4ccnn4)cc3)co2)cc1` [Compound 2], the 50% effective concentration (EC50) with OCI-AML3 cells (Homo sapiens, OCI-AML-3, 144 h) lay in the range of 100 to 500 nM; in the experiment on MLL-AF9 cells (Mus musculus, MLL-AF9, 120 h), 100 to 500 nM.
In the case of `Fc1cc(Br)ccc1/C=C/c1nc(COc2ccc(CCCCn3ccnn3)cc2)co1` [Compound 3A, (E)-((4-(4-(1H-1,2,3-triazol-1-yl)butyl)phenoxy)methyl)-2-(4-bromo-2-fluorostyryl)oxazole], the 50% effective concentration (EC50) in the experiment on OCI-AML3 cells (OCI-AML3 cells, 6 days of culture, CellTiterGlo) was below 50 nM; in the experiment on MLL-AF9 cells (MLL-AF9 cells, 5 days of culture, CellTiterGlo), below 50 nM.
For `C[Si](C)(C)c1cn(CCCCc2ccc(OCc3coc(/C=C/c4ccc(Br)cc4F)n3)cc2)nn1` [Compound 3B, (E)-2-(4-Bromo-2-fluorostyryl)-4-((4-(4-(4-(trimethylsilyl)-1H-1,2,3-triazol-1-yl)butyl)phenoxy)methyl)oxazole], the EC50 with OCI-AML3 cells (setting [1]) fell in the range of 500 to 1000 nM; in the experiment on MLL-AF9 cells (Mus musculus, MLL-AF9, 120 h), 100 to 500 nM.
Take `OCCc1cn(CCCCc2ccc(OCc3coc(/C=C/c4ccc(C(F)(F)F)cc4)n3)cc2)nn1` [Compound 4, (E)-2-(1-(4-(4-((2-(4-Trifluoromethyl)styryl)oxazol-4-yl)methoxy)phenyl)butyl-1H-1,2,3-triazol-4-yl)ethanol]: the EC50 in the experiment on OCI-AML3 cells (Homo sapiens, OCI-AML-3, 144 h) is 1000 to 10000 nM; in the experiment on MLL-AF9 cells (Mus musculus, MLL-AF9, 120 h), 500 to 1000 nM.
With `OCCCCc1cn(CCCCc2ccc(OCc3coc(/C=C/c4ccc(C(F)(F)F)cc4)n3)cc2)nn1` [Compound 5], the EC50 in the experiment with OCI-AML3 cells (Homo sapiens, OCI-AML-3, 144 h) was 1000 to 10000 nM; in the experiment with MLL-AF9 cells (Mus musculus, MLL-AF9, 120 h), 100 to 500 nM.
In the case of `CCOC(=O)c1nnn(CCCCc2ccc(OCc3coc(/C=C/c4ccc(C(F)(F)F)cc4)n3)cc2)c1C(=O)OCC` [Compound 6, (E)-diethyl 1-(4-(4-((2-(4-(trifluoromethyl)styryl)oxazol-4-yl)methoxy)phenyl)butyl)-1H-1,2,3-triazole-4,5-dicarboxylate], the EC50 with OCI-AML3 cells (Homo sapiens, OCI-AML-3, 144 h) was in the range of 1000 to 10000 nM; with MLL-AF9 cells (Mus musculus, MLL-AF9, 120 h) it was 1000 to 10000 nM.
As to `CNCc1cn(CCCCc2ccc(OCc3coc(/C=C/c4ccc(C(F)(F)F)cc4)n3)cc2)nn1` [Compound 7, (E)-N-methyl-1-(1-(4-(4-((2-(4-(trifluoromethyl)styryl)oxazol-4-yl)methoxy)phenyl)butyl)-1H-1,2,3-triazol-4-yl)methanamine], the half-maximal effective concentration (EC50) in the experiment with OCI-AML3 cells (Homo sapiens, OCI-AML-3, 144 h) was in the range of 1000 to 10000 nM; with MLL-AF9 cells (Mus musculus, MLL-AF9, 120 h) it was 500 to 1000 nM.
As for `OC1(c2cn(CCCCc3ccc(OCc4coc(/C=C/c5ccc(C(F)(F)F)cc5)n4)cc3)nn2)CCCC1` [Compound 8, (E)-1-(1-(4-(4-((2-(4-(trifluoromethyl)styryl)oxazol-4-yl)methoxy)phenyl)butyl)-1H-1,2,3-triazol-4-yl)cyclopentanol], the concentration for a half-maximal effect (EC50) with OCI-AML3 cells (Homo sapiens, OCI-AML-3, 144 h) is 500 to 1000 nM; with MLL-AF9 cells (Mus musculus, MLL-AF9, 120 h) it was 100 to 500 nM.
For `OCc1nnn(CCCCc2ccc(OCc3coc(/C=C/c4ccc(C(F)(F)F)cc4)n3)cc2)c1CO` [Compound 9, (E)-(1-(4-(4-((2-(4-(trifluoromethyl)styryl)oxazol-4-yl)methoxy)phenyl)butyl)-1H-1,2,3-triazole-4,5-diyl)dimethanol] the same measures were 1000 to 10000 nM and 500 to 1000 nM.
As to `O=S1(=O)CCN(Cc2cn(CCCCc3ccc(OCc4coc(/C=C/c5ccc(C(F)(F)F)cc5)n4)cc3)nn2)CC1` [Compound 10, (E)-4-((1-(4-(4-((2-(4-(trifluoromethyl)styryl)oxazol-4-yl)methoxy)phenyl)butyl)-1H-1,2,3-triazol-4-yl)methyl)thiomorpholine 1,1-dioxide], the EC50 in the experiment with OCI-AML3 cells (Homo sapiens, OCI-AML-3, 144 h) was 100 to 500 nM; in the experiment with MLL-AF9 cells (Mus musculus, MLL-AF9, 120 h), below 50 nM.
As to `Fc1cc(C(F)(F)F)ccc1CCc1nc(COc2ccc(CCCCn3ccnn3)cc2)co1` [Compound 11, 4-((4-(4-(1H-1,2,3-triazol-1-yl)butyl)phenoxy)methyl)-2-(2-fluoro-4-(trifluoromethyl)phenethyl)oxazole], the EC50 in the experiment on OCI-AML3 cells (Homo sapiens, OCI-AML-3, 144 h) was 1000 to 10000 nM; in the experiment on MLL-AF9 cells (Mus musculus, MLL-AF9, 120 h), 1000 to 10000 nM.
Take `C#CCNC(=O)CCCCc1cn(CCCCc2ccc(OCc3coc(/C=C/c4ccc(C(F)(F)F)cc4)n3)cc2)nn1` [Compound 12, (E)-N-(prop-2-yn-1-yl)-5-(1-(4-(4-((2-(4-(trifluoromethyl)styryl)oxazol-4-yl)methoxy)phenyl)butyl)-1H-1,2,3-triazol-4-yl)pentanamide]: the EC50 in the experiment on OCI-AML3 cells (Homo sapiens, OCI-AML-3, 144 h) was 500 to 1000 nM; with MLL-AF9 cells (Mus musculus, MLL-AF9, 120 h), 100 to 500 nM.
As for `NCCc1cn(CCCCc2ccc(OCc3coc(/C=C/c4ccc(C(F)(F)F)cc4)n3)cc2)nn1` [Compound 13, (E)-2-(1-(4-(4-((2-(4-(trifluoromethyl)styryl)oxazol-4-yl)methoxy)phenyl)butyl)-1H-1,2,3-triazol-4-yl)ethanamine], the EC50 in the experiment on OCI-AML3 cells (Homo sapiens, OCI-AML-3, 144 h) fell in the range of 1000 to 10000 nM; in the experiment with MLL-AF9 cells (Mus musculus, MLL-AF9, 120 h), 1000 to 10000 nM.
`C#CCCC(=O)NCCc1cn(CCCCc2ccc(OCc3coc(/C=C/c4ccc(C(F)(F)F)cc4)n3)cc2)nn1` [Compound 14, (E)-N-(2-(1-(4-(4-((2-(4-(trifluoromethyl)styryl)oxazol-4-yl)methoxy)phenyl)butyl)-1H-1,2,3-triazol-4-yl)ethyl)pent-4-ynamide]: the EC50 with OCI-AML3 cells (Homo sapiens, OCI-AML-3, 144 h) fell in the range of 1000 to 10000 nM; with MLL-AF9 cells (Mus musculus, MLL-AF9, 120 h), 500 to 1000 nM.
Turning to `O=S1(=O)CCN(Cc2cnnn2CCCCc2ccc(OCc3coc(/C=C/c4ccc(C(F)(F)F)cc4)n3)cc2)CC1` [Compound 15, (E)-4-((1-(4-(4-((2-(4-(trifluoromethyl)styryl)oxazol-4-yl)methoxy)phenyl)butyl)-1H-1,2,3-triazol-5-yl)methyl)thiomorpholine 1,1-dioxide], the EC50 with OCI-AML3 cells (Homo sapiens, OCI-AML-3, 144 h) lay within 500 to 1000 nM; in the experiment on MLL-AF9 cells (Mus musculus, MLL-AF9, 120 h), 100 to 500 nM.
For `O=C(CCCn1ccnn1)c1ccc(OCc2coc(/C=C/c3ccc(C(F)(F)F)cc3)n2)cc1` [Compound 16, (E)-4-(1H-1,2,3-triazol-1-yl)-1-(4-((2-(4-(trifluoromethyl)styryl)oxazol-4-yl)methoxy)phenyl)butan-1-one], the concentration giving a half-maximal response (EC50) with OCI-AML3 cells (Homo sapiens, OCI-AML-3, 144 h) lay in the range of 1000 to 10000 nM; in the experiment with MLL-AF9 cells (Mus musculus, MLL-AF9, 120 h), 100 to 500 nM.
For `OC(CCCn1ccnn1)c1ccc(OCc2coc(/C=C/c3ccc(C(F)(F)F)cc3)n2)cc1` (stereo not shown) [Compound 17, (E)-4-(1H-1,2,3-triazol-1-yl)-1-(4-((2-(4-(trifluoromethyl)styryl)oxazol-4-yl)methoxy)phenyl)butan-1-ol] the same measures were 100 to 500 nM and 50 to 100 nM.
For `O=C(CCCn1ccnn1)c1ccc(OCc2coc(/C=C/c3ccc(OC(F)(F)F)cc3)n2)cc1` [Compound 18, (E)-4-(1H-1,2,3-triazol-1-yl)-1-(4-((2-(4-(trifluoromethoxy)styryl)oxazol-4-yl)methoxy)phenyl)butan-1-one] the same measures were 1000 to 10000 nM and 500 to 1000 nM.
For `OC(CCCn1ccnn1)c1ccc(OCc2coc(/C=C/c3ccc(OC(F)(F)F)cc3)n2)cc1` (stereo not shown) [Compound 19, (E)-4-(1H-1,2,3-triazol-1-yl)-1-(4-((2-(4-(trifluoromethoxy)styryl)oxazol-4-yl)methoxy)phenyl)butan-1-ol], the EC50 in the experiment with OCI-AML3 cells (Homo sapiens, OCI-AML-3, 144 h) was in the range of 100 to 500 nM; in the experiment with MLL-AF9 cells (Mus musculus, MLL-AF9, 120 h), 100 to 500 nM.
Turning to `O=C(CCCn1ccnn1)c1ccc(OCc2coc(/C=C/c3ccc(Br)cc3F)n2)cc1` [Compound 20, (E)-1-(4-((2-(4-bromo-2-fluorostyryl)oxazol-4-yl)methoxy)phenyl)-4-(1H-1,2,3-triazol-1-yl)butan-1-one], the EC50 with OCI-AML3 cells (Homo sapiens, OCI-AML-3, 144 h) is 500 to 1000 nM; with MLL-AF9 cells (Mus musculus, MLL-AF9, 120 h), 100 to 500 nM.
In the case of `Fc1cc(C(F)(F)F)ccc1/C=C/c1nc(COc2ccc(CCCCn3cnnc3)cc2)co1` [Compound 135, (E)-4-((4-(4-(4H-1,2,4-triazol-4-yl)butyl)phenoxy)methyl)-2-(2-fluoro-4-(trifluoromethyl)styryl)oxazole], the EC50 in the experiment on MLL-AF9 cells (Mus musculus, MLL-AF9, 120 h) lay in the range of 500 to 1000 nM.
Turning to `O=CNCCCCc1ccc(OCc2coc(/C=C/c3ccc(C(F)(F)F)cc3F)n2)cc1` [Compound 136, (E)-N-(4-(4-((2-(2-fluoro-4-(trifluoromethyl)styryl)oxazol-4-yl)methoxy)phenyl)butyl)formamide], the concentration for a half-maximal effect (EC50) with MLL-AF9 cells (Mus musculus, MLL-AF9, 120 h) lay within 100 to 500 nM.
`O=S1(=O)CCN(CCCCc2ccc(OCc3coc(/C=C/c4ccc(C(F)(F)F)cc4F)n3)cc2)CC1` [Compound 137, (E)-4-(4-(4-((2-(2-fluoro-4-(trifluoromethyl)styryl)oxazol-4-yl)methoxy)phenyl)butyl)thiomorpholine 1,1-dioxide]: the concentration giving a half-maximal response (EC50) in the experiment on MLL-AF9 cells (Mus musculus, MLL-AF9, 120 h) lay within 500 to 1000 nM.
In the case of `COc1cc2c(cc1OC)[C@@H]1C(=O)c3ccc4c(c3O[C@@H]1CO2)C=CC(C)(C)O4` [Deguelin, reference compound], in the experiment on OCI-AML3 cells, the “sensitivity of OCI-AML3 relative to OCI-AML5” value is on record as “more sensitive than OCI-AML5”.
With `CC[C@H]1/C=C/C=C/C[C@@H](C)[C@H](O)[C@@](C)(O)C(=O)[C@@H](C)[C@H](O)[C@@H](C)C(=O)[C@@H](C)[C@H](O)[C@@H](C)/C=C/C(=O)O[C@@H]2[C@H](C)[C@H](CC1)O[C@]1(CC[C@H](C)[C@H](C[C@@H](C)O)O1)[C@H]2C` [Oligomycin, reference compound], the “sensitivity of OCI-AML3 relative to OCI-AML5” value in the experiment with OCI-AML3 cells is listed as “more sensitive than OCI-AML5”.
For the compound `C=C(C)[C@H]1Cc2c(ccc3c2O[C@@H]2COc4cc(OC)c(OC)cc4[C@@H]2C3=O)O1` [Rotenone, reference compound], in the experiment on OCI-AML3 cells, the “sensitivity of OCI-AML3 relative to OCI-AML5” value is recorded as “more sensitive than OCI-AML5”.
As to `CNC(=O)CN1CCC(Oc2cc3c(Nc4cccc(Cl)c4F)ncnc3cc2OC)CC1` [Sapitinib, reference compound], the “OCI-AML3 cells sensitive to the compound (dose response)” value with OCI-AML3 cells (OCI-AML3 cells) is reported as “not”.

Values taken from patent US11760754B2, “Heterocyclic mitochondrial activity inhibitors and uses thereof” (UNIVERSITÉ DE MONTRÉAL, priority 2017, dated 2023).
